Assay results reported in ChEMBL document CHEMBL2010711, “Synthesis and comparative evaluation of 4-oxa- and 4-aza-podophyllotoxins as antiproliferative microtubule destabilizing agents” (Bioorg Med Chem Lett, 2012).
Active and inactive are the calls of the source.

Columns and labels:
Paracentrotus lividus [1] = assay: Antimitotic activity against Paracentrotus lividus embryo assessed as cleavage alteration at 2 fold less effective threshold concentration after 2.5 to 6 hrs; format: functional, organism-based
Paracentrotus lividus [2] = assay: Microtubule destabilizing activity in Paracentrotus lividus embryo assessed as concentration required to cause 100% embryo spinning after 15 mins to 20 hrs; format: functional
Paracentrotus lividus [3] = assay: Antimitotic activity against Paracentrotus lividus embryo assessed as concentration required to cause 100% cleavage arrest after 2.5 to 6 hrs; format: functional
Paracentrotus lividus [4] = assay: Microtubule destabilizing activity in Paracentrotus lividus embryo assessed as embryo spinning at 2 fold less effective threshold concentration after 15 mins to 20 hrs; format: functional, organism-based
Paracentrotus lividus [5] = assay: Antimitotic activity against Paracentrotus lividus embryo assessed as concentration required to cause 100% cleavage alteration after 2.5 to 6 hrs; format: functional
Paracentrotus lividus [6] = assay: Antimitotic activity against Paracentrotus lividus embryo assessed as cleavage arrest at 2 fold less effective threshold concentration after 2.5 to 6 hrs; format: functional, organism-based

| SMILES | Activity (Paracentrotus lividus [1]) | EC (Paracentrotus lividus [2]) [nM] | EC (Paracentrotus lividus [3]) [nM] | Activity (Paracentrotus lividus [4]) | EC (Paracentrotus lividus [5]) [nM] | Activity (Paracentrotus lividus [6]) |
| --- | --- | --- | --- | --- | --- | --- |
| COc1ccc2c(c1)C(c1cc(OC)c(OC)c(OC)c1)C1=C(COC1=O)O2 (stereo not given) | inactive | 5000 | 2000 | inactive | 100 | inactive |
| COc1ccc2c(c1)C(c1cc(OC)c3c(c1)OCO3)C1=C(COC1=O)O2 (stereo not given) | inactive | 2000 | 200 | inactive | 50 | inactive |
| COc1ccc2c(c1)NC1=C(C(=O)OC1)C2c1cc(OC)c(OC)c(OC)c1 (stereo not given) | inactive | 500 | 500 | inactive | 50 | inactive |
| COc1ccc2c(c1)OC1=C(C(=O)OC1)C2c1cc(OC)c2c(c1OC)OCO2 (stereo not given) | inactive | 4000 | 500 | inactive | 100 | inactive |
| COc1cc(OC)cc(C2C3=C(COC3=O)Oc3cc(OC)ccc32)c1 (stereo not given) | inactive | 50 | 5 | inactive | 1 | inactive |
